Measurements taken from US10114013B2, “Method for detection of coenzyme Q10” (Berg LLC, priority 2012, dated 2018).
Several values for one entry are separate records, joined by “and”; a condition that tells them apart may be missing. Equal entries are not always repeated.

What was measured:
PaCa2 cells [1] = experiment: CoQ10 level in PaCa2 cells after CoQ10 treatment; extraction with methanol alone, LC/MS/MS detection; type: in vitro ADME, human; conditions: 100 μM CoQ10 in isopropanol, replicates 1-3
Protocol: (§1) To further validate the utility of the spectrophotometric method for the quantitative assessment of CoQ10 in biological samples, the experiment described above was repeated using HASMC, HepG2, and PaCa2 cell lines. Further, a second set of cell samples were prepared using each of the three cell types for analysis to determine CoQ10 levels using LC/MS/MS methods routinely used in the art. Briefly, cells were plated and treated with CoQ10 in isopropanol or the CoQ10 proprietary delivery formulation as set forth above, and harvested at 3, 6, or 24 hours after plating. Cell pellets were either extracted using the method set forth above, resuspending the cells in Buffers A and B, and extracting the CoQ10 with Buffer C, or the cell pellets were sent to a diagnostic laboratory (IriSys Research & Development Inc) for quantitative assessment of CoQ10 using extraction with methanol alone followed by LC/MS/MS detection.

HepG2 cells [2] = experiment: CoQ10 level in HepG2 cells after CoQ10 treatment; extraction with methanol alone, LC/MS/MS detection; type: in vitro ADME; conditions: 100 μM CoQ10 in isopropanol, replicates 1-3
Protocol: as §1

PaCa2 cells [3] = experiment: CoQ10 level in PaCa2 cells after CoQ10 treatment; Buffer A/B/C extraction, UV spectrophotometry at 275 nm; type: in vitro ADME, human; conditions: 100 μM CoQ10 in isopropanol, OD275 detection, replicates 1-3
Source text: (§2) The assay for quantitation of CoQ10 was used to determine the CoQ10 levels in various cells lines after CoQ10 treatment for various times. The cell lines used in the studies were the normal human aortic smooth muscle cells (HASMC), the hepatic cancer cell line HepG2, and the human pancreatic carcinoma cell line PaCa2. All cells lines are commercially available and were maintained according to instruction from the manufacturer/supplier of the cell lines.
In the experimental trials, about 1×10^6 HASMC, HepG2, or PaCa2 cells were plated into each well of a 6 well plate. […] Immediately after trypsinization, the cells were counted to determine the total number of viable cells in the sample. […]
The vials were incubated at 65° C. for 2 minutes in a water bath, with gentle mixing at about half way through the incubation. […] The solution was cooled to room temperature and a 75 μL aliquot of the upper phase was placed in a quartz cuvette and analyzed by UV spectrophotometry at a wavelength of 275 nm. […]
For quantitative assessment of CoQ10 in the biological samples, a standard curve was generated essentially as set forth above (Example 2). […] Each of the samples from the serial dilution was measured at a wavelength of 275 nm in a UV spectrometer and plotted on a graph.
A power series was used to fit the standard curve from the standard and an equation was determined. […]

HepG2 cells [4] = experiment: CoQ10 level in HepG2 cells after CoQ10 treatment; Buffer A/B/C extraction, UV spectrophotometry at 275 nm; type: in vitro ADME; conditions: for average level of CoQ10 in cells: Hep2G cells; for CoQ10 / Conc (pM/cell): HepG2 cells, OD275 detection, replicates 1-3
Protocol: as §2
200 μl of various concentrations of CoQ10 in Buffer A, or Buffer A alone, were aliquoted into glass vials and 10 μl of Buffer B was added to each vial. Cells treated with various concentrations of CoQ10 were collected at predetermined time points and washed. Cell pellet samples (e.g., about 10^5-10^7 cells) were combined with 200 μl of Buffer A and 10 μl of Buffer B, and the cell pellets were resuspended in the buffer mixture. The sample mixture turned opaque upon mixing Buffers A and B with cells. The mixtures were transferred into glass vials.
The glass vials from step 2 were warmed to 65° C. for 1 minute. The samples turned clear upon heating, and again became opaque upon cooling to room temperature.
A 200 μl aliquot of Buffer C was added to each vial. The vials were again warmed to 65° C. The solution in the vials spontaneously partitioned into two phases, with the second extraction buffer layer (upper layer) containing substantially all of the CoQ10 material.
A 50 μl sample of the upper extraction layer was removed and analyzed on a UV spectrometer at 275 nm. The amount of CoQ10 in each sample was determined by comparison to a standard curve.
In the experimental trials, about 1×10^6 HASMC, HepG2, or PaCa2 cells were plated into each well of a 6 well plate. At the time of plating, the cells were treated with defined concentrations of CoQ10, in triplicate, in isopropanol or a proprietary CoQ10 delivery formulation for 3, 6, or 24 hours. After the defined incubation time, the cells were washed with cold TPBS (PBS with 100 mM Tris, pH 7.4), harvested by trypsinization, washed (2×) with 1 ml of TPBS, and pelleted by centrifugation at 1,500 RPM. Immediately after trypsinization, the cells were counted to determine the total number of viable cells in the sample.
Cell pellets were resuspended in 200 μL of Buffer A (first extraction buffer) and 10 μL of Buffer B (surfactant/detergent). Upon addition of Buffer B, the sample became opaque and a precipitate formed. The resuspended cells were transferred to a borosilicate vial. For control samples not containing cells, the CoQ10 containing solution was added to a glass vial and hexane was added to bring the volume to 200 μl, and 10 μl of Buffer B was then added.
The vials were incubated at 65° C. for 2 minutes in a water bath, with gentle mixing at about half way through the incubation. The sample changed from cloudy to clear during the incubation. The sample was removed from the water bath and 200 μL of Buffer C (second extraction buffer) was added to the vial. The sample partitioned into two phases, polar and non-polar. The top, non-polar, layer was clear, while a white precipitate formed the bottom of the vial. The sample was again heated at 65° C. for 1 minute with gentle mixing about half way through the incubation. The solution was cooled to room temperature and a 75 μL aliquot of the upper phase was placed in a quartz cuvette and analyzed by UV spectrophotometry at a wavelength of 275 nm. The absorption was documented.
For quantitative assessment of CoQ10 in the biological samples, a standard curve was generated essentially as set forth above (Example 2). For each independent determination of CoQ10, the standard curve was generated by making a 50 μM CoQ10 stock solution in hexane and serially diluting of the stock material. Each of the samples from the serial dilution was measured at a wavelength of 275 nm in a UV spectrometer and plotted on a graph. […]

COC1=C(OC)C(=O)C(C/C=C(\C)CC/C=C(\C)CC/C=C(\C)CC/C=C(\C)CC/C=C(\C)CC/C=C(\C)CC/C=C(\C)CC/C=C(\C)CC/C=C(\C)CCC=C(C)C)=C(C)C1=O [CoQ10, Coenzyme Q10]
CoQ10 (PaCa2 cells [1]): 0.371 µM and 1.917 µM and 1.186 µM | Conc (pM/cell) (PaCa2 cells [1]): 0.31 pM/cell and 0.17 pM/cell and 0.12 pM/cell | CoQ10 (HepG2 cells [2]): 2.061 µM and 1.223 µM and 1.599 µM | Conc (pM/cell) (HepG2 cells [2]): 0.34 pM/cell and 0.24 pM/cell (2×) | CoQ10 (PaCa2 cells [3]): 28.46 µM and 12.5 µM and 4.05 µM | Conc (pM/cell) (PaCa2 cells [3]): 1.56 pM/cell and 9.09 pM/cell and 3.2 pM/cell | average level of CoQ10 in cells (HepG2 cells [4]; 50 μM in propanol, 3 hours): 14.40 pM/cell | average level of CoQ10 in cells (HepG2 cells [4]; 50 μM in propanol, 6 hours): 27.07 pM/cell | average level of CoQ10 in cells (HepG2 cells [4]; 50 μM in propanol, 24 hours): 37.04 pM/cell | average level of CoQ10 in cells (HepG2 cells [4]; 100 μM in propanol, 3 hours): 25.20 pM/cell | average level of CoQ10 in cells (HepG2 cells [4]; 100 μM in propanol, 6 hours): 34.74 pM/cell | average level of CoQ10 in cells (HepG2 cells [4]; 100 μM in propanol, 24 hours): 45.43 pM/cell | CoQ10 (HepG2 cells [4]; 50 μM CoQ10 in isopropanol): 39.76 µM and 41.84 µM and 51.45 µM | Conc (pM/cell) (HepG2 cells [4]; 50 μM CoQ10 in isopropanol): 29.6 pM/cell and 30.7 pM/cell and 51.9 pM/cell | CoQ10 (HepG2 cells [4]; 100 μM CoQ10 in isopropanol): 36.08 µM and 49.71 µM and 50.51 µM | Conc (pM/cell) (HepG2 cells [4]; 100 μM CoQ10 in isopropanol): 70.7 pM/cell and 121.2 pM/cell and 101 pM/cell
